We go through two molecules from publication PMC9610975, “Microemulsions Enhance the In Vitro Antioxidant Activity of Oleanolic Acid in RAW 264.7 Cells” (Pharmaceutics, 2022).

Data set [1] is described as follows: Saturation solubility of OA in different oils and surfactants. Format: physicochemical. The note with it: thermodynamic from solid. As for the experimental part: The solubility of OA in different vehicles was defined by adding an excess of OA to 2 mL of each of the tested solvents/tensides: Water, Capmul PG-8/NF, Capmul PG-12/NF, Capryol 90, Captex 300, Captex 355, Cremophor EL, Etyl Oleate, Isoprpyl myristate, Labrafac lipophile, Labrafilm 1944, Labrafilm 2125, Labrasol, Labrasol ALF, Lauroglycol 90, Nigella Oil, PEG400, Soybean Oil, Sunflower Oil, Transcutol, Triacetine, Tween 20 and Tween 80. Each mixture of solvent and OA was stirred for 24 h at 25 °C, then it was centrifuged at 14,000× g for 10 min. After removing the precipitate, the supernatant was diluted with MeOH and analyzed by HPLC-DAD to determine the concentration of the OA. The analyses were performed in triplicate.

A short description of data set [2]: In vitro release, dialysis bag method, EtOH:PBS (30:70). It is filed as physicochemical. The note with it: 6 h, 37 °C. As for the experimental part: The release studies of OA from MEs in comparison to OA solution (SDS 0.5% p/V in H2O) were carried out with the dialysis bag method (regenerated cellulose dialysis membranes, Spectrum Laboratories, Inc., Breda, The Netherlands, MWCO 12–14 kD). Two mL of the OA-MEs or the solution were placed into a 12–14 kDa dialysis membrane and immersed into 200 mL of the release medium at 37 °C under magnetic stirring, using EtOH:PBS (30:70) as the release medium. In vitro release study was also carried out in the simulated gastric fluid (SGF) medium at pH 1.2 for 2 h followed by simulated intestinal fluid (SIF) at pH 6.8 for 6 h. The composition of the gastric fluid was 2 g of NaCl and 7 mL of HCl per liter of deionized water. The intestinal fluid was composed of 6.805 g of KH2PO4 and 0.896 g of NaOH per liter of deionized water. At predetermined time intervals, 1 mL of each release medium was withdrawn and replaced with an equal volume of fresh solution. The OA concentration in samples was finally determined by HPLC-DAD. All studies were performed in triplicate.
To evaluate the kinetics and mechanism of drug release from the microemulsions, the Korsmeyer–Peppas model, Hixson–Crowell model and Higuchi model, and the first order and zero order mathematical models, were used, and the best-fitted model was selected based on high regression coefficient (R^2) value for the release data.

Data set [3] is described as follows: Parallel artificial membrane permeability assay (PAMPA). The note with it: room temperature, read-out: permeability coefficient (Pe). It is filed as in vitro ADME. The protocol: The test was carried out in a 96-well, MultiScreen-IP PAMPA (Millipore corporation) filter plate in order to evaluate the ability of compounds to diffuse from a donor compartment into an acceptor compartment. EtOH:PBS (30:70) mixture was selected as the acceptor medium for ME-1-OA and EtOH:PBS (5:95) for ME-2-OA. Each membrane was activated with a combination of lecithin and cholesterol, 10 g/L and 8 g/L, respectively, in 1,7-octadiene. Immediately after the deposition of the solution (5 µL), 250 µL of OA solution and appropriately diluted MEs-OA were added to each well of the donor plate. Each receptor plate was filled with 250 µL of acceptor medium. The plate was incubated at room temperature for 1 h. Then, the samples were withdrawn, properly diluted with methanol, centrifuged for 10 min at 14,000× g, and the OA concentration determined by HPLC-DAD. The permeability coefficient Pe (cm/s) was calculated according to the following equation: Pe=−ln 1−CAt/Ceq/A 1/VD+1/VAt where A is the active surface area (0.3 cm^2 × apparent porosity of the filter), VD and VA the well volume of the donor and acceptor plate (mL), respectively, t the incubation time (s), and CAt and CDt the concentration of OA in the acceptor and donor plate at time t, respectively. Ceq was calculated according to: Ceq=CDt × VD+CAt × VA/VA+VD
A general note: The PAMPA barrier holds no transporters, so it reflects passive diffusion.

In data set [4] the test system is RAW 264.7 cells. Kind of data set: MTT assay, cell viability without LPS. Format: cell-based, murine. The note with it: 18 h, compared to untreated control cells. The protocol: The murine macrophages RAW 264.7 cell line (ATCC TIB-71™) was used in this study. Cells were grown in DMEM culture medium supplemented with L-glutamine (2 mM), streptomycin (100 µg/mL) and penicillin (100 U/mL), and 10% Heat-Inactivated Fetal Bovine Serum (HI-FBS), at 37 °C in 5% CO2 atmosphere. HI-FBS was obtained by incubating FBS at 55 °C for 30 min. Upon reaching 90% confluence, macrophage subcultures were prepared by scraping cells and adding appropriate dilutions of the cell suspension to a new plate. The culture medium was replaced every 3 days. The Methyl Thiazolyl Tetrazolium (MTT) assay was used to assess the viability of RAW 264.7 cells under various experimental conditions. Cells were seeded in a 96-well plate (15 × 10^3 cells/well) in complete medium and incubated overnight. Next, cells were starved for 6 h, and then treated for an additional 18 h with OA and OA loaded in the two different formulations (ME-1-OA and ME-2-OA) at various concentrations, in the absence or presence of LPS (1 μg/mL). […] Subsequently, cells were incubated with a 0.5 mg/mL solution of MTT (100 μL/well) for 1 h in the dark at 37 °C. After a wash in PBS, the insoluble formazan crystals were dissolved by adding 100 μL/well of dimethyl sulfoxide (DMSO). The iMARK microplate reader (Bio-Rad, Hercules, CA, USA) was used to measure absorbance values at a wavelength of 595 nm. […]
Background: Formazan colour is commonly taken as a measure of viable cells.

Data set [5] has as its system RAW 264.7 cells. Nature of the data set: MTT assay, LPS-induced reduction of cell viability. It is filed as cell-based, murine. The note with it: 18 h. The protocol:
In in vitro cell-based experiments, cells were incubated in serum-free DMEM medium (starvation medium) for 6 h and then incubated for an additional 18 h in the presence of LPS (1 μg/mL). LPS was used as a pro-inflammatory and pro-oxidant stimulus. Cells untreated and not exposed to LPS stimulus were used as controls. The Methyl Thiazolyl Tetrazolium (MTT) assay was used to assess the viability of RAW 264.7 cells under various experimental conditions. Cells were seeded in a 96-well plate (15 × 10^3 cells/well) in complete medium and incubated overnight. Next, cells were starved for 6 h, and then treated for an additional 18 h with OA and OA loaded in the two different formulations (ME-1-OA and ME-2-OA) at various concentrations, in the absence or presence of LPS (1 μg/mL). […] Subsequently, cells were incubated with a 0.5 mg/mL solution of MTT (100 μL/well) for 1 h in the dark at 37 °C. After a wash in PBS, the insoluble formazan crystals were dissolved by adding 100 μL/well of dimethyl sulfoxide (DMSO). The iMARK microplate reader (Bio-Rad, Hercules, CA, USA) was used to measure absorbance values at a wavelength of 595 nm. Data were reported in percentage terms compared with untreated control cells not exposed to LPS. The experiment was repeated in triplicate.

Data set [6] concerns RAW 264.7 cells. Kind of data set: Intracellular ROS production (DCFDA probe) under LPS. It is filed as cell-based, murine. The note with it: 18 h. The protocol:
In in vitro cell-based experiments, cells were incubated in serum-free DMEM medium (starvation medium) for 6 h and then incubated for an additional 18 h in the presence of LPS (1 μg/mL). LPS was used as a pro-inflammatory and pro-oxidant stimulus. Cells untreated and not exposed to LPS stimulus were used as controls. DCFDA fluorescent probe was used for sensitive and rapid quantification of intracellular ROS in response to LPS stimulus. Cells were seeded in a 96-well plate (20 × 10^3 cells/well) in complete medium and incubated overnight. After 6 h starvation, cells were treated for an additional 18 h with OA and OA loaded in the two different formulations (ME-1-OA and ME-2-OA) at various concentrations, in the absence or presence of LPS (1 μg/mL). […] Next, DCFDA probe (10 μM in PBS) was added to each well and incubated in the dark for 1.5 h at 37 °C. Fluorescence values were measured at excitation and emission wavelengths of 485 and 538 nm, respectively, using a fluorescence microplate reader (Fluoroskan Ascent^TM FL Microplate Fluorometer, Thermo Fisher Scientific, (Waltham, MA, USA). The level of intracellular ROS was normalized to cell viability. Data were reported in percentage terms compared with untreated control cells not exposed to LPS. The experiment was repeated in triplicate.

On the set-up of data set [7]: method as in PMID 17163409. The note with it: water; cited from earlier work.
Details of data set [8]: method as in PMID 17163409. The note with it: rats, oral doses of 25 and 50 mg/kg; cited from earlier work.
Where [9] appears, read: LPS 1 μg/mL, compared with unstimulated control cells.

Converted amounts (≈) assume the structure as drawn.

Usually solubility stands for how much of the substance goes into solution per volume. The aqueous solubility is the concentration that dissolves in the medium under given conditions. As a reminder, the cell viability is a per cent measure of how many cells are alive, often set against a control. A high value points to better survival.

Consider `CC1(C)CC[C@]2(C(=O)O)CC[C@]3(C)C(=CC[C@@H]4[C@@]5(C)CC[C@H](O)C(C)(C)[C@@H]5CC[C@]43C)[C@@H]2C1` [OA, Oleanolic acid], for which the solubility at 24 h came to 19.72 ± 0.13 mg/mL (≈ 43.2 mM) in data set [1] (oil or lipid, in Capmul PG-8/NF, 24 h at 25 °C); 16.4 ± 1.04 mg/mL (≈ 36 mM) in data set [1] (oil or lipid, in Capmul PG-12/NF, 24 h at 25 °C); 24.9 ± 0.9 mg/mL (≈ 54.6 mM) in data set [1] (oil or lipid, in Capryol 90, 24 h at 25 °C); 3.74 ± 0.1 mg/mL (≈ 8.19 mM) in data set [1] (oil or lipid, in Captex 300, 24 h at 25 °C); 3.19 ± 0.24 mg/mL (≈ 6.98 mM) in data set [1] (oil or lipid, in Captex 355, 24 h at 25 °C); 2.13 ± 0.21 mg/mL (≈ 4.66 mM) in data set [1] (oil or lipid, in Etyloleate, 24 h at 25 °C). In addition, the solubility at 24 h is 9.44 ± 1.05 mg/mL (≈ 20.7 mM) in data set [1] (oil or lipid, in Isopropil myristate, 24 h at 25 °C); 13.3 ± 0.87 mg/mL (≈ 29.1 mM) in data set [1] (oil or lipid, in Labrafac Lipophile, 24 h at 25 °C); 12 ± 0.84 mg/mL (≈ 26.2 mM) in data set [1] (oil or lipid, in Labrasol ALF, 24 h at 25 °C); 13.3 ± 0.21 mg/mL (≈ 29.1 mM) in data set [1] (oil or lipid, in Labrasol, 24 h at 25 °C); 10.8 ± 0.56 mg/mL (≈ 23.5 mM) in data set [1] (oil or lipid, in Lauroglycole 90, 24 h at 25 °C); 35.4 ± 1.41 mg/mL (≈ 77.5 mM) in data set [1] (oil or lipid, in Nigella oil, 24 h at 25 °C). Moreover, the solubility at 24 h was found to be 1.06 ± 0.17 mg/mL (≈ 2.32 mM) in data set [1] (oil or lipid, in Soybean oil, 24 h at 25 °C); 11.8 ± 0.46 mg/mL (≈ 25.7 mM) in data set [1] (oil or lipid, in Sunflower oil, 24 h at 25 °C); 3.09 ± 0.17 mg/mL (≈ 6.77 mM) in data set [1] (oil or lipid, in Triacetine, 24 h at 25 °C); 8.49 ± 0.58 mg/mL (≈ 18.6 mM) in data set [1] (organic solvent or mixture, in PEG 400, 24 h at 25 °C); 41 ± 2.41 mg/mL (≈ 89.8 mM) in data set [1] (organic solvent or mixture, in Transcutol HP, 24 h at 25 °C); 28.3 ± 0.93 mg/mL (≈ 62 mM) in data set [1] (in Cremophor EL, 24 h at 25 °C). Moreover, the solubility at 24 h was found to be 6.19 ± 0.58 mg/mL (≈ 13.6 mM) in data set [1] (in Tween 20, 24 h at 25 °C) and 4.56 ± 0.36 mg/mL (≈ 9.98 mM) in data set [1] (in Tween 80, 24 h at 25 °C). The OA released in data set [2] amounted to 23.6 ± 1.25%. Further, in data set [3], the Papp at 1 h is 0.369 ×10⁻⁶ cm/s. In addition, in the data set on RAW 264.7 cells [4] (0.05–1 μg/mL), the “change in cell viability” value is given as “No significant change in cell viability”. The “reduction in cell viability” value in the data set with RAW 264.7 cells [4] (2.5–10 μg/mL) is on record as 25–30%. Besides, the “protective effect against LPS-induced reduction of cell viability” value in the data set with RAW 264.7 cells [5] (free OA 0.05–1 μg/mL with LPS 1 μg/mL) is “no significant protective effect”. Moreover, the “effect against LPS-induced intracellular ROS production” value in the data set on RAW 264.7 cells [6] (free OA 0.25–1 μg/mL with LPS 1 μg/mL) was “mild but significant”. Further, the aqueous solubility in data set [7] was 1.75 ng/mL (≈ 3.83e-06 mM). Also, the oral bioavailability in data set [8] is listed as 0.7%.
In the data set with RAW 264.7 cells [5] (setting [9]), “lipopolysaccharide [LPS, reference compound]” had a cell viability of 70 ± 7%. Also, the “intracellular ROS levels” value in the data set with RAW 264.7 cells [6] (setting [9]) was determined as 165 ± 7%.
